Experimental data: ChEMBL document CHEMBL3596165, “Synthesis, structure elucidation and identification of antiproliferative activities of a novel class of thiophene bioisosteres bearing the privileged 7,8-dihydroimidazo[2,1-c][1,2,4]triazin-4(6H)-one scaffold” (Bioorg Med Chem, 2015)

Legend:
[1] = system: Vero; assay: Antiproliferative activity against African green monkey Vero cells at 50 ug/ml after 24 hrs by BrdUrd incorporation assay; type: cell-based; conditions: chlorocebus sabaeus
[2] = Antiproliferative activity against African green monkey Vero cells at 50 ug/ml after 48 hrs by BrdUrd incorporation assay; type: cell-based; conditions: chlorocebus sabaeus, read-out: GI
[3] = Antiproliferative activity against African green monkey Vero cells at 50 ug/ml after 72 hrs by BrdUrd incorporation assay; type: cell-based; conditions: chlorocebus sabaeus, read-out: GI
[4] = system: A549; assay: Antiproliferative activity against human A549 cells at 50 ug/ml after 24 hrs by BrdUrd incorporation assay; type: functional; conditions: A549, 24 h, read-out: GI
[5] = system: A549; assay: Antiproliferative activity against human A549 cells at 50 ug/ml after 48 hrs by BrdUrd incorporation assay; type: functional; conditions: A549, 48 h, read-out: GI
[6] = system: A549; assay: Antiproliferative activity against human A549 cells at 50 ug/ml after 72 hrs by BrdUrd incorporation assay; type: functional; conditions: A549, 72 h, read-out: GI
[7] = system: HeLa; assay: Antiproliferative activity against human HeLa cells at 50 ug/ml after 24 hrs by BrdUrd incorporation assay; type: functional; conditions: read-out: GI
[8] = system: HeLa; assay: Antiproliferative activity against human HeLa cells at 50 ug/ml after 48 hrs by BrdUrd incorporation assay; type: functional; conditions: read-out: GI
[9] = system: HeLa; assay: Antiproliferative activity against human HeLa cells at 50 ug/ml after 72 hrs by BrdUrd incorporation assay; type: functional; conditions: read-out: GI
[10] = system: T47D; assay: Antiproliferative activity against human T47D cells at 50 ug/ml after 24 hrs by BrdUrd incorporation assay; type: functional; conditions: read-out: GI
[11] = system: T47D; assay: Antiproliferative activity against human T47D cells at 50 ug/ml after 48 hrs by BrdUrd incorporation assay; type: functional; conditions: read-out: GI
[12] = system: T47D; assay: Antiproliferative activity against human T47D cells at 50 ug/ml after 72 hrs by BrdUrd incorporation assay; type: functional; conditions: read-out: GI
[13] = system: TOV112D; assay: Antiproliferative activity against human TOV112D cells at 50 ug/ml after 24 hrs by BrdUrd incorporation assay; type: functional; conditions: read-out: GI
[14] = system: TOV112D; assay: Antiproliferative activity against human TOV112D cells at 50 ug/ml after 48 hrs by BrdUrd incorporation assay; type: functional; conditions: read-out: GI
[15] = system: TOV112D; assay: Antiproliferative activity against human TOV112D cells at 50 ug/ml after 72 hrs by BrdUrd incorporation assay; type: functional; conditions: read-out: GI
[16] = system: Vero; assay: Antiproliferative activity against African green monkey Vero cells after 24 hrs by BrdUrd incorporation assay; type: cell-based; conditions: chlorocebus sabaeus
[17] = system: Vero; assay: Antiproliferative activity against African green monkey Vero cells after 48 hrs by BrdUrd incorporation assay; type: cell-based; conditions: Chlorocebus sabaeus
[18] = system: Vero; assay: Antiproliferative activity against African green monkey Vero cells after 72 hrs by BrdUrd incorporation assay; type: cell-based; conditions: Chlorocebus sabaeus
[19] = system: A549; assay: Antiproliferative activity against human A549 cells after 24 hrs by BrdUrd incorporation assay; type: functional, cell-based; conditions: A549, 24 h
[20] = system: A549; assay: Antiproliferative activity against human A549 cells after 48 hrs by BrdUrd incorporation assay; type: functional, cell-based; conditions: A549, 48 h
[21] = system: A549; assay: Antiproliferative activity against human A549 cells after 72 hrs by BrdUrd incorporation assay; type: functional, cell-based; conditions: A549, 72 h
[22] = system: HeLa; assay: Antiproliferative activity against human HeLa cells after 24 hrs by BrdUrd incorporation assay; type: functional, cell-based
[23] = system: HeLa; assay: Antiproliferative activity against human HeLa cells after 48 hrs by BrdUrd incorporation assay; type: functional, cell-based
[24] = system: HeLa; assay: Antiproliferative activity against human HeLa cells after 72 hrs by BrdUrd incorporation assay; type: functional, cell-based
[25] = system: T47D; assay: Antiproliferative activity against human T47D cells after 24 hrs by BrdUrd incorporation assay; type: functional, cell-based
[26] = system: T47D; assay: Antiproliferative activity against human T47D cells after 48 hrs by BrdUrd incorporation assay; type: functional, cell-based
[27] = system: T47D; assay: Antiproliferative activity against human T47D cells after 72 hrs by BrdUrd incorporation assay; type: functional, cell-based
[28] = system: TOV112D; assay: Antiproliferative activity against human TOV112D cells after 24 hrs by BrdUrd incorporation assay; type: functional, cell-based
[29] = system: TOV112D; assay: Antiproliferative activity against human TOV112D cells after 48 hrs by BrdUrd incorporation assay; type: functional, cell-based
[30] = system: TOV112D; assay: Antiproliferative activity against human TOV112D cells after 72 hrs by BrdUrd incorporation assay; type: functional, cell-based

IC50 [19] [µM] | IC50 [20] [µM] | Structure (SMILES) | growth inhibition (GI) [1] [%] | inhibition at 48 h, 50 ug/ml [2] [%] | inhibition at 72 h, 50 ug/ml [3] [%] | inhibition of growth at 50 µg/mL [4] [%] | inhibition of growth at 50 µg/mL [5] [%] | inhibition of growth at 50 µg/mL [6] [%] | inhibition of growth at 50 µg/mL [7] [%] | inhibition of growth at 50 µg/mL [8] [%] | inhibition of growth at 50 µg/mL [9] [%] | inhibition of growth at 50 µg/mL [10] [%] | inhibition of growth at 50 µg/mL [11] [%] | inhibition of growth at 50 µg/mL [12] [%] | inhibition of growth at 50 µg/mL [13] [%] | inhibition of growth at 50 µg/mL [14] [%] | inhibition of growth at 50 µg/mL [15] [%] | IC50 [16] [µM] | IC50 [17] [µM] | IC50 [18] [µM] | other results
110 | 90 | O=c1c(-c2cccs2)nnc2n1CCN2c1ccccc1 | 50 | 75 | 90 | 80 | 90 | 100 | 70 | 100 | 100 | 95 | 100 | 100 | 90 | 100 | 100 | 170 | 110 | 90 | IC50 [21]: 80 µM; IC50 [22]: 120 µM; IC50 [23]: 90 µM; IC50 [24]: 80 µM; IC50 [25]: 90 µM; IC50 [26]: 90 µM; IC50 [27]: 80 µM; IC50 [28]: 90 µM; IC50 [29]: 80 µM; IC50 [30]: 80 µM
110 | 100 | COc1ccccc1N1CCn2c1nnc(-c1cccs1)c2=O | 50 | 75 | 90 | 70 | 80 | 90 | 50 | 60 | 80 | 80 | 90 | 95 | 75 | 80 | 90 | 150 | 100 | 90 | IC50 [21]: 80 µM; IC50 [22]: 150 µM; IC50 [23]: 130 µM; IC50 [24]: 100 µM; IC50 [25]: 100 µM; IC50 [26]: 90 µM; IC50 [27]: 80 µM; IC50 [28]: 100 µM; IC50 [29]: 100 µM; IC50 [30]: 80 µM
100 | 80 | Cc1ccccc1N1CCn2c1nnc(-c1cccs1)c2=O | 25 | 50 | 90 | 80 | 95 | 100 | 45 | 75 | 90 | 80 | 90 | 100 | 90 | 100 | 100 | > 160 | 160 | 90 | IC50 [21]: 80 µM; IC50 [22]: > 160 µM; IC50 [23]: 110 µM; IC50 [24]: 90 µM; IC50 [25]: 100 µM; IC50 [26]: 90 µM; IC50 [27]: 80 µM; IC50 [28]: 90 µM; IC50 [29]: 80 µM; IC50 [30]: 80 µM
